A word on the MIC: it is the lowest concentration found to suppress growth. Broadly, the IC50 is the point on the concentration scale where inhibition reaches its midpoint.

Converted amounts (≈) assume the structure as drawn.

Experiment [1] has as its system Candida albicans. Put plainly: Antifungal activity against Candida albicans assessed as reduction in fungal growth incubated for 12 hrs by microdilution method. Type of experiment: functional. Background: In broth dilution the organism is exposed to a series of concentrations in liquid medium.
Experiment [2] deals with Staphylococcus aureus. Put plainly: Antibacterial activity against methicillin resistant Staphylococcus aureus assessed as reduction in bacterial growth incubated for 12 hrs by microdilution method. Format: functional.
The test system of experiment [3] is Escherichia coli. Put plainly: Antibacterial activity against Escherichia coli assessed as reduction in bacterial growth incubated for 12 hrs by microdilution method. Type of experiment: functional.
In experiment [4] the test system is U-87 MG. Put plainly: Antiproliferative activity against human U87MG cells assessed as reduction in cell viability after 72 hrs by SRB assay. Format: functional, cell-based, U-87MG ATCC. (In general: Sulforhodamine B stains cellular protein and so reports cell mass.)
Experiment [5] concerns U-251. Put plainly: Antiproliferative activity against human U251 cells assessed as reduction in cell viability after 72 hrs by SRB assay. Type of experiment: functional, cell-based.
[6] abbreviates: Homo sapiens, U-87 MG, 72 h, read-out: IC50.
Where [7] appears, read: Homo sapiens, U-251, 72 h, read-out: IC50.

As to `C[C@@H]1[C@H](O)[C@@H](C)/C=C/C=C/C=C/C=C/C=C/C=C/C=C/[C@H](O[C@@H]2O[C@H](C)[C@@H](O)[C@H](N)[C@@H]2O)C[C@@H]2O[C@](O)(C[C@@H](O)C[C@@H](O)[C@H](O)CC[C@@H](O)C[C@@H](O)CC(=O)O[C@H]1C)C[C@H](O)[C@H]2C(=O)O` [AMPHOTERICIN B], the MIC in experiment [1] stood at 0.75 µg/mL (≈ 0.812 µM).

On to `C[C@@H]1C[C@@H]([C@H](O)CC2CC(=O)NC(=O)C2)C(=O)[C@@H](C)[C@@H]1O`, for which the MIC in experiment [2] stood at 9 µg/mL (≈ 30.3 µM); in experiment [3] it was 10 µg/mL (≈ 33.6 µM); in experiment [1], 15 µg/mL (≈ 50.4 µM). Also, the concentration for half-maximal inhibition (IC50) was determined as 3800 nM in experiment [4] (setting [6]) and 1500 nM in experiment [5] (setting [7]).

On to `CN[C@H](CC(C)C)C(=O)N[C@H]1C(=O)N[C@@H](CC(N)=O)C(=O)N[C@H]2C(=O)N[C@H]3C(=O)N[C@H](C(=O)N[C@H](C(=O)O)c4cc(O)cc(O)c4-c4cc3ccc4O)[C@H](O)c3ccc(c(Cl)c3)Oc3cc2cc(c3O[C@@H]2O[C@H](CO)[C@@H](O)[C@H](O)[C@H]2O[C@H]2C[C@](C)(N)[C@H](O)[C@H](C)O2)Oc2ccc(cc2Cl)[C@H]1O` [VANCOMYCIN], for which, in experiment [2], the MIC was 0.2 µg/mL (≈ 0.138 µM).

Consider `C[C@@H]1C/C(=C/CC2CC(=O)NC(=O)C2)C(=O)[C@@H](C)[C@@H]1O`, for which the MIC in experiment [2] amounted to 10 µg/mL (≈ 35.8 µM); in experiment [3] it was 10 µg/mL (≈ 35.8 µM); in experiment [1] it was 18 µg/mL (≈ 64.4 µM). In addition, the IC50 result in experiment [4] (u-87mg atcc) and in experiment [5] (u-251) was “Not Active” throughout.

For `C[C@H]1C[C@@](C)(O)C[C@@H]([C@H](O)CC2CC(=O)NC(=O)C2)C1=O`, the MIC was found to be 10 µg/mL (≈ 33.6 µM) in experiment [2], 10 µg/mL (≈ 33.6 µM) in experiment [3] and 18 µg/mL (≈ 60.5 µM) in experiment [1]. Besides, the IC50 turned out to be 220 nM in experiment [4] (setting [6]) and 50 nM in experiment [5] (setting [7]).

As for `COc1cccc2c1C(=O)c1c(O)c3c(c(O)c1C2=O)C[C@@](O)(C(=O)CO)C[C@@H]3O[C@H]1C[C@H](N)[C@H](O)[C@H](C)O1` [DOXORUBICIN], the IC50 was 1600 nM in experiment [4] (setting [6]) and 6800 nM in experiment [5] (setting [7]).

Take `C[C@H]1C[C@H]([C@H](O)CC2CC(=O)NC(=O)C2)C(=O)[C@@](C)(O)C1`: the MIC was 11 µg/mL (≈ 37 µM) in experiment [2], 9 µg/mL (≈ 30.3 µM) in experiment [3] and 12 µg/mL (≈ 40.4 µM) in experiment [1]. For the same compound, the IC50 result in experiment [4] (u-87mg atcc) and in experiment [5] (u-251) was “Not Active” each time.

Consider `CC1=C[C@@](C)(CO)O/C1=C\C(=O)CC1CC(=O)NC(=O)C1`, for which the MIC was 10 µg/mL (≈ 34.1 µM) in experiment [2], 8 µg/mL (≈ 27.3 µM) in experiment [3] and 15 µg/mL (≈ 51.1 µM) in experiment [1]. The IC50 result in experiment [4] (u-87mg atcc) and in experiment [5] (u-251) was “Not Active” in each case.

As to `C[C@H](CO)C[C@@]1(C)OC(CC2CC(=O)NC(=O)C2)=CC1=O`, the values for the minimal inhibitory concentration (MIC) in experiment [2], in experiment [3] and in experiment [1] were 10 µg/mL (≈ 33.9 µM), 8 µg/mL (≈ 27.1 µM) and 8 µg/mL (≈ 27.1 µM), respectively. For the same compound, the IC50 result in experiment [4] (u-87mg atcc) and in experiment [5] (u-251) was “Not Active” each time.

With `C[C@](O)(CO)C[C@@]1(C)OC(CC2CC(=O)NC(=O)C2)=CC1=O`, the MIC in experiment [2] amounted to 10 µg/mL (≈ 32.1 µM); in experiment [3], 12 µg/mL (≈ 38.5 µM); in experiment [1], 18 µg/mL (≈ 57.8 µM). Further, the IC50 entry in experiment [4] (u-87mg atcc) and in experiment [5] (u-251) was “Not Active” each time.

For `C[C@H](CO)C[C@@]1(C)OC(CC2(O)CC(=O)NC(=O)C2)=CC1=O`, the MIC in experiment [2] was 9 µg/mL (≈ 28.9 µM); in experiment [3], 10 µg/mL (≈ 32.1 µM); in experiment [1], 20 µg/mL (≈ 64.2 µM). The IC50 result in experiment [4] (u-87mg atcc) and in experiment [5] (u-251) was “Not Active” each time.

With `C[C@@H]1C[C@@](C)(CO)O/C1=C\C(=O)CC1CC(=O)NC(=O)C1`, the minimal inhibitory concentration (MIC) in experiment [2] was 11 µg/mL (≈ 37.2 µM); in experiment [3], 9 µg/mL (≈ 30.5 µM); in experiment [1], 20 µg/mL (≈ 67.7 µM). For the same compound, the IC50 entry in experiment [4] (u-87mg atcc) and in experiment [5] (u-251) was “Not Active” throughout.

With `C[C@@H]1C[C@](C)(CO)O/C1=C\C(=O)CC1CC(=O)NC(=O)C1`, the figures for the MIC in experiment [2], in experiment [3] and in experiment [1] were 9 µg/mL (≈ 30.5 µM), 9 µg/mL (≈ 30.5 µM) and 16 µg/mL (≈ 54.2 µM), respectively. Also, the IC50 result in experiment [4] (u-87mg atcc) and in experiment [5] (u-251) was “Not Active” each time.

Take `C[C@H](CO)[C@@H]1OC(CC2CC(=O)NC(=O)C2)=CC(=O)[C@H]1C`: the minimal inhibitory concentration (MIC) in experiment [2] stood at 10 µg/mL (≈ 33.9 µM); in experiment [3], 12 µg/mL (≈ 40.6 µM); in experiment [1], 18 µg/mL (≈ 60.9 µM). Also, the IC50 entry in experiment [4] (u-87mg atcc) and in experiment [5] (u-251) was “Not Active” each time.

For the compound GENTAMICIN, the MIC in experiment [3] is 1.25 µg/mL.

These data come from ChEMBL document CHEMBL4414606, “Bioactive Streptoglutarimides A-J from the Marine-Derived Streptomyces sp. ZZ741” (J Nat Prod, 2019).
